Test systems include K-562 leukemia; CAKI-1 renal; M14 melanoma; SF-295 CNS; ACHN renal; MALME-3M melanoma; NCI/ADR-RES ovarian; PC-3 prostate; DU-145 prostate; T-47D breast.
Holding throughout (test): growth of human tumour cells (NCI), 48 h

Several values for one entry are separate records, joined by “and”; a condition that tells them apart may be missing. Equal entries are not always repeated.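 Briefly, cells in 96-well plates were exposed to five compound concentrations for 48 h, and endpoints were estimated by linear interpolation. At the GI50, growth is halved. TGI denotes the concentration required for complete inhibition of growth.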

For `Cc1ccc(S(=O)(=O)N(/N=C(\N)Oc2ccc(Cl)cc2)C(=N)Oc2ccc(Cl)cc2)cc1`, the TGI in the test with K-562 leukemia, in the test on CAKI-1 renal, in the test with M14 melanoma, with SF-295 CNS, in the test on ACHN renal and in the test with MALME-3M melanoma was above 100 µM each time.
As to `O=C1C2c3[nH]c4ccccc4c3[C@@H]3CCCCCCCCCCC3C2C(=O)N1c1ccccc1` (some centres undefined), the TGI with K-562 leukemia was 29.5 µM; with M14 melanoma, 34.3 µM; in the test on SF-295 CNS it was 42.1 µM; in the test on ACHN renal, above 100 µM.
Regarding `C=C(C=O)C1CC(=O)C(C(=O)OC)[C@@H]2O[C@@](C)(CC2=O)C[C@@H]2OC(=O)[C@]3(O[C@@H]23)[C@@H](C(=O)OC)C1` (some centres undefined), the GI50 was 20.1 µM in the test on K-562 leukemia; 14.8 µM with M14 melanoma; 11.2 µM in the test with SF-295 CNS; 46.4 µM in the test on NCI/ADR-RES ovarian; 19.3 µM with PC-3 prostate; 28.9 µM in the test on DU-145 prostate. Also, the GI50 in the test with T-47D breast is 33.7 µM. Moreover, the TGI with K-562 leukemia was above 100 µM; in the test with M14 melanoma it was 30.4 µM; in the test on SF-295 CNS, 28.6 µM; in the test on NCI/ADR-RES ovarian it was above 100 µM; with PC-3 prostate it was 57.6 µM; in the test on DU-145 prostate, above 100 µM. The compound further gave a TGI in the test on T-47D breast above 100 µM.
As for `COc1ccc(/C=C2\Cc3ccccc3C2=O)cc1OC`, the TGI with K-562 leukemia, with CAKI-1 renal, in the test with M14 melanoma, in the test on SF-295 CNS, in the test with ACHN renal and in the test with MALME-3M melanoma was above 100 µM in each case.
Consider `CC(C)[C@@H]1C=C(c2ccccc2)c2ccccc2C1C(C#N)(C#N)C(C)C` (some centres undefined), for which the TGI in the test with K-562 leukemia, in the test with M14 melanoma, in the test with SF-295 CNS, with ACHN renal and in the test on MALME-3M melanoma was above 100 µM throughout.
For the compound `N/C(=N\NS(=O)(=O)c1ccccc1)Oc1ccc(Cl)cc1`, the TGI in the test with K-562 leukemia, with CAKI-1 renal, in the test on M14 melanoma, with SF-295 CNS, in the test on ACHN renal and in the test with MALME-3M melanoma was above 100 µM in each case.
Regarding `COc1ccc2cccc(C(=O)c3ccc(C)c4c3CCC4)c2c1`, the TGI in the test with K-562 leukemia was above 100 µM; in the test on CAKI-1 renal it was 80.8 µM; in the test on M14 melanoma, 57.6 µM; in the test with SF-295 CNS, above 100 µM; with ACHN renal, above 100 µM; with MALME-3M melanoma it was 72.8 µM.
For `Cn1c2c([N+](=O)[O-])[se]nc2c(=O)n1-c1ccc([N+](=O)[O-])cc1`, the TGI in the test with K-562 leukemia was above 100 µM; in the test with CAKI-1 renal, 4.03 µM; in the test with M14 melanoma, 2.62 µM; with SF-295 CNS it was 11.6 µM; in the test with ACHN renal it was 3.71 µM; in the test with MALME-3M melanoma it was 3.23 µM.
With `CCCCCCCCCCCC(=O)OCC1OC(n2cc(F)c(=O)[nH]c2=O)C(NC(=O)OCc2ccccc2)C(O)C1O` (centres undefined), the TGI in the test on K-562 leukemia was 52.3 µM; in the test on CAKI-1 renal, above 100 µM; in the test on M14 melanoma, 36.2 µM; in the test with SF-295 CNS it was 63.9 µM; in the test on ACHN renal, above 100 µM; in the test with MALME-3M melanoma it was 47.9 µM.
In the case of `C/C1=C\[C@H](C)C[C@H](C)OC(=O)C[C@H](c2ccc(O)cc2)NC(=O)[C@@H](Cc2c(Br)[nH]c3ccccc23)N(C)C(=O)[C@H](C)NC(=O)[C@@H](C)C1`, the GI50 with K-562 leukemia was 0.229 µM; with CAKI-1 renal it was 0.0272 µM; with M14 melanoma, 0.0456 µM; with SF-295 CNS, 0.0349 µM; in the test with NCI/ADR-RES ovarian, 0.0706 µM; with ACHN renal, 0.0228 µM. Further, the GI50 with MALME-3M melanoma is 0.032 µM. Besides, the TGI in the test with K-562 leukemia was above 49.8 µM; in the test with CAKI-1 renal it was 0.2 µM and 0.0985 µM; in the test with SF-295 CNS, 0.699 µM and 0.18 µM; in the test with NCI/ADR-RES ovarian, 2.02 µM; with ACHN renal it was 0.0894 µM; in the test with MALME-3M melanoma, 0.404 µM and 0.196 µM.
Take `COc1ccc(/C(C)=C(\c2ccc(Cl)cc2)c2ccc(OCCN3CCCC3)cc2)cc1`: the GI50 in the test with K-562 leukemia is 1.25 µM; in the test on CAKI-1 renal, 4.85 µM; in the test on M14 melanoma, 0.752 µM; in the test with SF-295 CNS, 3.23 µM; in the test on NCI/ADR-RES ovarian, 4.54 µM; in the test with ACHN renal, 5.1 µM. The results for the GI50 in the test on PC-3 prostate, with DU-145 prostate and in the test with MALME-3M melanoma were 3.39 µM, 4.89 µM and 2.72 µM, respectively. In addition, the TGI in the test on K-562 leukemia was determined as 7.23 µM; with CAKI-1 renal it was 9.29 µM; in the test on M14 melanoma, 1.95 µM; in the test with SF-295 CNS, 7.25 µM; in the test with NCI/ADR-RES ovarian it was 9.36 µM; in the test with ACHN renal, 9.62 µM. Also, the TGI with PC-3 prostate was 7.52 µM; in the test with DU-145 prostate, 9.4 µM; in the test on MALME-3M melanoma it was 7.61 µM.
On to `COC(=O)C[CH](C(=O)OC)[Ge]([CH3])([CH3])[S]c1ccccc1` (centres undefined), for which the GI50 in the test on K-562 leukemia was 17.4 µM; with CAKI-1 renal, 20.8 µM; in the test with M14 melanoma it was 21.5 µM; in the test with SF-295 CNS, 12.6 µM; in the test on ACHN renal, 18.4 µM; with MALME-3M melanoma, above 100 µM. Also, the TGI with K-562 leukemia is above 100 µM; in the test on CAKI-1 renal it was 47.8 µM; in the test with M14 melanoma, 57.5 µM; with SF-295 CNS, 40 µM; with ACHN renal it was 36.6 µM; in the test on MALME-3M melanoma, above 100 µM.
`S=c1nc(-c2ccccc2)oc(=NC2CCCCC2)n1C1CCCCC1`: the GI50 in the test with K-562 leukemia is 5.25 µM; in the test on CAKI-1 renal it was 1.99 µM; in the test on M14 melanoma, 6.2 µM; in the test with SF-295 CNS, 4.07 µM; with NCI/ADR-RES ovarian, 5.01 µM; in the test with ACHN renal it was 4.14 µM. Moreover, the GI50 in the test with DU-145 prostate was 3.26 µM; in the test with T-47D breast, 3.85 µM. Besides, the TGI in the test with K-562 leukemia was above 100 µM; in the test on CAKI-1 renal, 6.38 µM; in the test with M14 melanoma it was 27.8 µM; in the test with SF-295 CNS, 37.4 µM; in the test with NCI/ADR-RES ovarian it was 23.4 µM; with ACHN renal, 14.2 µM. Moreover, the TGI in the test on DU-145 prostate is 10.3 µM; in the test with T-47D breast, 21.4 µM.
As to `COC(=O)C(=O)C1(CCC(C)=O)c2ccccc2-c2ccccc21`, the TGI in the test with K-562 leukemia, with CAKI-1 renal, with M14 melanoma, in the test with SF-295 CNS, in the test on ACHN renal and with MALME-3M melanoma was above 100 µM throughout.

(Values after PubChem BioAssay (NCI).)
